Data from patent US20250381168A1, “VLA4 INHIBITORS AND USES THEREOF” (Washington University, priority 2022, published 2025).
Like-named read-outs stand apart in the source and are kept apart here.

Key:
VLA-4 (a4b1) = VLA-4 (a4b1) (Homo sapiens (Human), UniProt P05556+P13612); experiment: sVCAM flow cytometry cell-based assay (inhibition of soluble VCAM-1 binding to G2 ALL cells);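 note: compounds at 0.1 to 1000 nM preincubated 30 min with G2 ALL cells, then VCAM/Fc added for 30 min, bound VCAM-1 detected by PE secondary antibody, percent binding cells by flow cytometry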
Experimental: VLA-4 (a4b1) inhibitor compounds were tested for their ability to inhibit the binding of soluble VCAM-1 to human G2 acute lymphoblastic leukemia (ALL) cells. Briefly, G2 ALL cells are pre-incubated with increasing concentrations (0.1 to 1000 nM) of compounds for 30 minutes. Soluble VCAM/Fc chimera protein (R & D systems) is then added to the mixture and the cells incubated for an additional 30 minutes. Afterwards, cells are washed and VCAM-1 is detected using a PE-conjugated secondary polyclonal antibody. In each experiment, an aliquot of cells are stained with isotype control antibodies to serve as a negative control. The percentage of VCAM-1 binding cells was then determined by flow cytometry.

integrin a4b7 = integrin a4b7 (Homo sapiens (Human), UniProt P13612+P26010); experiment: a4b7 solid phase receptor assay (SPRA); details: recombinant human a4b7 binding to plate-coated human VCAM1 (TABLE 4)
Experimental: Wells were washed 3 times with TBS+ and blocking buffer (TBS+ with 1% bovine serum albumin), the plate was incubated for 1 hr at 37° C., and then washed 3× with TBS+ buffer. Recombinant human a4b7 (R & D Systems) was diluted to 1 μg/ml in TBS+/0.1% bovine serum albumin. Test compounds were diluted into the integrin solution and added to the washed ligand-coated plate according to a standard template with each sample repeated in triplicate. After incubation for 2 hr at room temperature, the plate was washed 3× with 150 μl of TBS+ buffer. To each well, biotinylated anti-A4 antibody (R & D Systems) at 1 μg/ml in TBS+/0.1% BSA was added and the plate covered and incubated for 1 hr at room temperature. After washing the plate 3× with TBS+ buffer, streptavidin-conjugated horseradish peroxidase (R & D Systems) diluted in TBS+ blocking buffer was added to the wells and the plate incubated for 20 min at room temperature. The plate was washed 3× with TBS+ buffer followed by addition of 50 μl of TMB substrate (Sigma T4444). After incubation for 20 min at room temperature, plates were stopped with TMB stop solution (Sigma S5689) by colorimetric detection at 450 nm wavelength using a Tecan Safire II plate reader.

[1] = system: hematopoietic stem/progenitor cells (HSPCs); experiment: HSPC mobilization into peripheral blood, colony forming unit (CFU) assay; details: mice

VLA-4 (a4b1), sequence (P13612 34-1032): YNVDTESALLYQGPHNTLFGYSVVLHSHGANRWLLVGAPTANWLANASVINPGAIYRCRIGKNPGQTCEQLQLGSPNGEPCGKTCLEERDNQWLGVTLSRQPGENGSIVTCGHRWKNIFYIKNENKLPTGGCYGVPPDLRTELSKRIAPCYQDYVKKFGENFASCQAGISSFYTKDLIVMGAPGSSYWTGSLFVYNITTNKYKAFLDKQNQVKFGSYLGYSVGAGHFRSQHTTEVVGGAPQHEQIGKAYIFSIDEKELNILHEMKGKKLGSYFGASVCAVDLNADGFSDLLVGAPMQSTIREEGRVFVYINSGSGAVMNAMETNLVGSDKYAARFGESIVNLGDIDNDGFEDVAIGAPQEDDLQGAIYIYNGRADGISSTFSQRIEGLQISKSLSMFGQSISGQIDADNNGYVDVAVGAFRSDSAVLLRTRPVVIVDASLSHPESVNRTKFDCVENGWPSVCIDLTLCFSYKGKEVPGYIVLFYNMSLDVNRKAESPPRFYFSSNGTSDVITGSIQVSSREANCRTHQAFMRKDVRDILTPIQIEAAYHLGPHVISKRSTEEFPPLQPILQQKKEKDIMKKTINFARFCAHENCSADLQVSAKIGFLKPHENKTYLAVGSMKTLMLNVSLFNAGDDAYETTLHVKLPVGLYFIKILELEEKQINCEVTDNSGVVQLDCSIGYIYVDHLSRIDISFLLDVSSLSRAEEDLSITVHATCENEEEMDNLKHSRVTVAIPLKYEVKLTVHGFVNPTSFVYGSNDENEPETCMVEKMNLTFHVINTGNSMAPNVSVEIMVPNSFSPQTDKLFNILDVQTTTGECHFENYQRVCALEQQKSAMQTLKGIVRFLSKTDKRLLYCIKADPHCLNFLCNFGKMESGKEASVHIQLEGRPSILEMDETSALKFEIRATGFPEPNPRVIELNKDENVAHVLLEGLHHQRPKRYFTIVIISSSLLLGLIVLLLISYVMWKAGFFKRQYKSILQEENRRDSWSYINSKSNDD
VLA-4 (a4b1), sequence (P05556 21-798): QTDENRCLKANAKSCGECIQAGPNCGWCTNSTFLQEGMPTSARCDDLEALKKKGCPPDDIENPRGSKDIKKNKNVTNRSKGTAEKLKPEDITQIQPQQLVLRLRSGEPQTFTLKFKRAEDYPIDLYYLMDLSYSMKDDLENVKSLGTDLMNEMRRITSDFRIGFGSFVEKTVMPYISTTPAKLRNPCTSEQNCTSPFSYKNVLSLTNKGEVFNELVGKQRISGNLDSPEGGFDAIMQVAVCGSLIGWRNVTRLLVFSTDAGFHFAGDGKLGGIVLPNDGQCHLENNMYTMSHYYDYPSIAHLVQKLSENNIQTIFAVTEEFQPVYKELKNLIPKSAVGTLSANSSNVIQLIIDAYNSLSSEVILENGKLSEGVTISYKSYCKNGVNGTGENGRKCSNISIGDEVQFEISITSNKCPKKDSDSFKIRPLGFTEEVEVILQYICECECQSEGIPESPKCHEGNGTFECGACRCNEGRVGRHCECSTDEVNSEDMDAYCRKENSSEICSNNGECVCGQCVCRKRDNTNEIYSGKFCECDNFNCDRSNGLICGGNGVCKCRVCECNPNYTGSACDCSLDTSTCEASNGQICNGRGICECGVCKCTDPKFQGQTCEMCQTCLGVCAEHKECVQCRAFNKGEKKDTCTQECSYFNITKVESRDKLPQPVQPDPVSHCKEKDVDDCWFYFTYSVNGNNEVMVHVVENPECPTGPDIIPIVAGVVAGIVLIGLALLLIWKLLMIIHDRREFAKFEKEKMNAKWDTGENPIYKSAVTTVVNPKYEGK
integrin a4b7, sequence (P13612 34-970): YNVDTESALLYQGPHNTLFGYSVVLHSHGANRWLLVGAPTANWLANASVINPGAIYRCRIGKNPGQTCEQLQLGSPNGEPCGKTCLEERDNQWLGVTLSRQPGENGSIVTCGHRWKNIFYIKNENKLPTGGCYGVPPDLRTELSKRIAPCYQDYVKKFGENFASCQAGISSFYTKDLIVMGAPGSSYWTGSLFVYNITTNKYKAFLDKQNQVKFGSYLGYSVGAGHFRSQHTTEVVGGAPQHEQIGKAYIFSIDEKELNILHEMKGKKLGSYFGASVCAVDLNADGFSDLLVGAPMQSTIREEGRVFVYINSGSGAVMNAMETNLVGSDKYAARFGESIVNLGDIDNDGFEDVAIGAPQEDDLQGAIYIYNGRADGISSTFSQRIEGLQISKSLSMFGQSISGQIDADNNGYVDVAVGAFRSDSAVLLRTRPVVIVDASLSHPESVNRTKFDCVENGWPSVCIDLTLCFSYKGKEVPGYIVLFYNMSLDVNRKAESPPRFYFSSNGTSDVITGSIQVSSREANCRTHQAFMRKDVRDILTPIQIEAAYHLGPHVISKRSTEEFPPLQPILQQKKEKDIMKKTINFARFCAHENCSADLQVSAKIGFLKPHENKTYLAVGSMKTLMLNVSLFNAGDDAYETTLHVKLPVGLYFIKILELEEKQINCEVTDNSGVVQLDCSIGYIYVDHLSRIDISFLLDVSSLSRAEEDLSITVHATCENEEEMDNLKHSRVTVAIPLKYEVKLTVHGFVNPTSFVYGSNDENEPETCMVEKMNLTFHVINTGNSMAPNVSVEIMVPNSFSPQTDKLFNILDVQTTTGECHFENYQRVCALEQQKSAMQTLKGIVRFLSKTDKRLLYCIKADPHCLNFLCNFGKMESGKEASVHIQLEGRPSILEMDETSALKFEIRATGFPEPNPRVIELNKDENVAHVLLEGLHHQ
integrin a4b7, sequence (P26010 20-723): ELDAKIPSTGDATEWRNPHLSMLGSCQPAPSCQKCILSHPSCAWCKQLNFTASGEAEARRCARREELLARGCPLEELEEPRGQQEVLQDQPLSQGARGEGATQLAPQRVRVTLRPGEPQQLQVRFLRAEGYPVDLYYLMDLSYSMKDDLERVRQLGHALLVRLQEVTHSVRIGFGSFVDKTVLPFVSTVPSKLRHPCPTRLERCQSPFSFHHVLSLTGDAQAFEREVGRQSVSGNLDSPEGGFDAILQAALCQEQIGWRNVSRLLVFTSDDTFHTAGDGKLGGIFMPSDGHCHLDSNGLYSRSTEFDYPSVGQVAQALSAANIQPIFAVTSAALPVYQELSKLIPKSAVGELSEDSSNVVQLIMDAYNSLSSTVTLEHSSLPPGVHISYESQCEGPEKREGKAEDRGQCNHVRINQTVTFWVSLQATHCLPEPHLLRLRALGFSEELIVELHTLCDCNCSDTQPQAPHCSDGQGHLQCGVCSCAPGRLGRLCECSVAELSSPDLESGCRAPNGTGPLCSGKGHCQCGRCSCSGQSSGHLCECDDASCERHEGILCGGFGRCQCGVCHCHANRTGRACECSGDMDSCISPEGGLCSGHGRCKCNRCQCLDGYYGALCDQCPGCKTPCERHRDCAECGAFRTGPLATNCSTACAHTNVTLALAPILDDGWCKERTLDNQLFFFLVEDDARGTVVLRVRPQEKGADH

COCCOCCOCCOCCOCCOCCOCCOCCOCCOCCOCCOCCOCCOCCOCCOCCOCCOCCOCCOCCOCCOCCOCCOCCOCc1cc(OC)c(-c2ccc(C[C@H](NC(=O)[C@@H]3CCCN3S(=O)(=O)c3cc(Cl)cc(Cl)c3)C(=O)O)cc2)c(OC)c1 [Example 1]
IC50 (VLA-4 (a4b1); as listed in TABLE 7, read-out: sVCAM IC50): 0.373 nM
IC50 (VLA-4 (a4b1); as listed in TABLE 8, read-out: sVCAM IC50): 0.373 nM
IC50 (VLA-4 (a4b1); as listed in TABLE 9, read-out: sVCAM IC50): 0.373 nM
IC50 (VLA-4 (a4b1); as listed in TABLE 10, read-out: sVCAM IC50): 0.373 nM
IC50 (VLA-4 (a4b1); as listed in TABLE 11, read-out: sVCAM IC50): 0.373 nM
IC50 (VLA-4 (a4b1); as listed in TABLE 12, read-out: sVCAM IC50): 0.373 nM
IC50 (VLA-4 (a4b1); as listed in TABLE 14, read-out: sVCAM IC50): 0.373 nM
IC50 (VLA-4 (a4b1); as listed in TABLE 15, read-out: sVCAM IC50): 0.373 nM
IC50 (VLA-4 (a4b1); as listed in TABLE 17, read-out: sVCAM IC50): 0.373 nM
IC50 (VLA-4 (a4b1); as listed in TABLE 18, read-out: sVCAM IC50): 0.373 nM
IC50 (VLA-4 (a4b1); inhibition of sVCAM-1 binding to human G2 ALL cells (TABLE 3), read-out: SVCAM-1, IC50): 0.373 nM
IC50 (integrin a4b7): 5.6 nM
HSPC mobilization in the triple combination regimen with plerixafor and truncated Groβ [1]: high degree of extended mobilization
No. CFU (×10^3)/mL ± SD, 2 hr ([1]; alone or in combination with Plerixafor and tGroβ, peripheral blood, 2 hr (TABLE 17)): 5.69 ± 2.57 (×10^3)/mL
No. CFU (×10^3)/mL ± SD, 4 hr ([1]; alone or in combination with Plerixafor and tGroβ, peripheral blood, 4 hr (TABLE 17)): 4.82 ± 1.07 (×10^3)/mL
No. CFU (×10^3)/mL ± SD, 6 hr ([1]; alone or in combination with Plerixafor and tGroβ, peripheral blood, 6 hr (TABLE 17)): 2.97 ± 0.65 (×10^3)/mL
HSPC mobilization, result in words ([1]; single dose): significant HSPC mobilization at 4 hours
No. CFU (×10^3)/mL ± SD, 2 hr ([1]; single dose alone or in combination with AMD3100 (5 mg/kg s.c.), peripheral blood, 2 hr (TABLE 14)): 5.94 ± 4.52 (×10^3)/mL
No. CFU (×10^3)/mL ± SD, 3 hr ([1]; single dose alone or in combination with AMD3100 (5 mg/kg s.c.), peripheral blood, 3 hr (TABLE 14)): 6.42 ± 4.64 (×10^3)/mL
No. CFU (×10^3)/mL ± SD, 5 hr ([1]; single dose alone or in combination with AMD3100 (5 mg/kg s.c.), peripheral blood, 5 hr (TABLE 14)): 5.02 ± 1.67 (×10^3)/mL
No. CFU (x10^3)/mL ± SD, 4 hr ([1]; single dose alone or in combination with Plerixafor (5 mg/kg s.c.), peripheral blood, 4 hr (TABLE 15)): 2.65 ± 1.15 (x10^3)/mL
No. CFU (x10^3)/mL ± SD, 6 hr ([1]; single dose alone or in combination with Plerixafor (5 mg/kg s.c.), peripheral blood, 6 hr (TABLE 15)): 1.43 ± 0.56 (x10^3)/mL
No. CFU (x10^3)/mL ± SD, 24 hr ([1]; single dose alone or in combination with Plerixafor (5 mg/kg s.c.), peripheral blood, 24 hr (TABLE 15)): 0.22 ± 0.10 (x10^3)/mL
effect on extended HSPC mobilization in combination with a single dose of the CXCR4 inhibitor AMD3100 (Plerixafor) ([1]; single dose of each agent): synergistic effects
No. CFU (×10^3)/mL ± SD, 0.25 hr ([1]; single dose, peripheral blood, 0.25 hr post dose (TABLE 8)): 4.10 ± 1.53 (×10^3)/mL
No. CFU (×10^3)/mL ± SD, 0.5 hr ([1]; single dose, peripheral blood, 0.5 hr post dose (TABLE 7)): 1.22 ± 0.35 (×10^3)/mL
No. CFU (×10^3)/mL ± SD, 2 hr ([1]; single dose, peripheral blood, 2 hr post dose (TABLE 7)): 2.12 ± 1.04 (×10^3)/mL
No. CFU (×10^3)/mL ± SD, 2 hr ([1]; single dose, peripheral blood, 2 hr post dose (TABLE 8)): 4.79 ± 2.05 (×10^3)/mL
No. CFU (×10^3)/mL ± SD, 2 hr ([1]; single dose, peripheral blood, 2 hr post dose (TABLE 9)): 4.72 ± 1.19 (×10^3)/mL
No. CFU (×10^3)/mL ± SD, 2 hr ([1]; single dose, peripheral blood, 2 hr post dose (TABLE 10)): 4.18 ± 1.99 (×10^3)/mL
No. CFU (x10^3)/mL ± SD, 2 hr ([1]; single dose, peripheral blood, 2 hr post dose (TABLE 11)): 3.14 ± 0.63 (x10^3)/mL
No. CFU (×10^3)/mL ± SD, 4 hr ([1]; single dose, peripheral blood, 4 hr post dose (TABLE 7)): 2.30 ± 0.25 (×10^3)/mL
No. CFU (×10^3)/mL ± SD, 4 hr ([1]; single dose, peripheral blood, 4 hr post dose (TABLE 8)): 4.43 ± 0.66 (×10^3)/mL
No. CFU (×10^3)/mL ± SD, 4 hr ([1]; single dose, peripheral blood, 4 hr post dose (TABLE 9)): 5.00 ± 1.26 (×10^3)/mL
No. CFU (×10^3)/mL ± SD, 4 hr ([1]; single dose, peripheral blood, 4 hr post dose (TABLE 10)): 4.41 ± 0.89 (×10^3)/mL
No. CFU (x10^3)/mL ± SD, 4 hr ([1]; single dose, peripheral blood, 4 hr post dose (TABLE 11)): 4.14 ± 1.31 (x10^3)/mL
No. CFU (×10^3)/mL ± SD, 4 hr ([1]; single dose, peripheral blood, 4 hr post dose (TABLE 18)): 5.18 ± 1.99 (×10^3)/mL
No. CFU (×10^3)/mL ± SD, 6 hr ([1]; single dose, peripheral blood, 6 hr post dose (TABLE 9)): 1.84 ± 0.63 (×10^3)/mL
No. CFU (×10^3)/mL ± SD, 6 hr ([1]; single dose, peripheral blood, 6 hr post dose (TABLE 10)): 1.78 ± 0.38 (×10^3)/mL
No. CFU (x10^3)/mL ± SD, 6 hr ([1]; single dose, peripheral blood, 6 hr post dose (TABLE 11)): 2.20 ± 0.63 (x10^3)/mL
No. CFU (×10^3)/mL ± SD, 8 hr ([1]; single dose, peripheral blood, 8 hr post dose (TABLE 18)): 2.00 ± 0.66 (×10^3)/mL
No. CFU (x10^3)/mL ± SD, 24 hr ([1]; single dose, peripheral blood, 24 hr post dose (TABLE 11)): 0.29 ± 0.11 (x10^3)/mL
No. CFU (×10^3)/mL ± SD, 24 hr ([1]; single dose, peripheral blood, 24 hr post dose (TABLE 18)): 0.46 ± 0.30 (×10^3)/mL
No. CFU (x10^3)/mL ± SD, 2 hr ([1]; single injection, peripheral blood, 2 hr post dose (TABLE 12)): 4.72 ± 0.33 (x10^3)/mL
No. CFU (x10^3)/mL ± SD, 4 hr ([1]; single injection, peripheral blood, 4 hr post dose (TABLE 12)): 3.38 ± 0.21 (x10^3)/mL
No. CFU (x10^3)/mL ± SD, 6 hr ([1]; single injection, peripheral blood, 6 hr post dose (TABLE 12)): 2.87 ± 0.39 (x10^3)/mL
No. CFU (x10^3)/mL ± SD, 8 hr ([1]; single injection, peripheral blood, 8 hr post dose (TABLE 12)): 1.12 ± 0.48 (x10^3)/mL
